Assay results reported in patent US20230250064A1, “PREPARATION METHOD FOR FUSED PYRAZOLE-TYPE COMPOUND” (SHANGHAI MEIYUE BIOTECH DEVELOPMENT CO., LTD., priority 2020, published 2023).

Biological target: T1, human IRAK4 (Homo sapiens, UniProt Q9NWZ3)
T1 construct: purchased Carna
T1 sequence (Q9NWZ3 1-460): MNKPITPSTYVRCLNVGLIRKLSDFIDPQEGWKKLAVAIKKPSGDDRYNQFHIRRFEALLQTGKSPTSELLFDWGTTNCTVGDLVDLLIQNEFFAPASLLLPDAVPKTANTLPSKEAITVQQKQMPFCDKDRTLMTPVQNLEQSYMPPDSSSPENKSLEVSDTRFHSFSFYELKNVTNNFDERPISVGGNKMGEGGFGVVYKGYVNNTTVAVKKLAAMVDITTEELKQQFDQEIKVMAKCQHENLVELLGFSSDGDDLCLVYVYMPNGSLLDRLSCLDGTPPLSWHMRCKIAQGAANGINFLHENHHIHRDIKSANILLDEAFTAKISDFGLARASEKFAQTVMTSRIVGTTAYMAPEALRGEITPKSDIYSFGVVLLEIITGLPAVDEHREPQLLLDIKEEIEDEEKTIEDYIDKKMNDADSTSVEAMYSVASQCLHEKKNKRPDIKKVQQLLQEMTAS
Assay: IRAK4 MSA (Mobility-Shift Assay), inhibition of human IRAK4 kinase activity
Type: biochemical
Settings: GST-IRAK4 1 nM, ATP at Km concentration (37 μM), 28° C. for 1 h, Caliper EZ Reader; read-out: IC50 against human IRAK4 kinase activity
Method: The inhibitory activity of the compounds against IRAK4 at the Km concentration of ATP was measured in IRAK4 MSA (Mobility-Shift Assay, a mobility detection of microfluidic chip technology).
A recombinant fusion protein of N-terminal GST (glutathione-S-transferase) and human IRAK4 was used as enzyme (GST-IRAK4, kinase IRAK4 (Carna)) at a final concentration of 1 nM; ATP (Sigma) was at a final concentration of 37 μM; the substrates used for the kinase reaction were 5-FAM (5-carboxyfluorescein)-labeled polypeptide (5-FAM-IPTSPITTTYFFFKKK-COOH) and substrate peptide FAM-P8 (GL Biochem) at final concentrations of 5 μM.
In this assay, a 500 μM stock solution of the compounds was prepared in 100% DMSO, and serially 4-fold diluted to the 10th concentrations with 100% DMSO, followed by a 10-fold dilution with the compound buffer (50 mM HEPES, pH 7.5, 0.00015% Brij-35) to give intermediate dilutions of the compounds at final concentrations of 10 μM-0.04 nM containing 10% DMSO. The intermediate dilutions was transferred into a black 384-well plate at a volume of 5μL.
Kinase IRAK4 was diluted to 2.5 nM with the kinase buffer (50 mM HEPES, pH 7.5, 0.00015% Brij-35, 2 mM DTT). 10 μL of the IRAK4 dilution was transferred to the 384-well plate and co-incubated with the compound for 10-15 min.
The substrate and ATP were diluted to 12.5 μM and 92.5 μM with reaction buffer (50 mM HEPES, pH 7.5, 0.00015% Brij-35, 10 mM MgCl2), respectively. 10 μL of the dilutions was transferred to the 384-well plate and incubated at 28° C. for 1 h. The reaction was terminated by adding 25 μL of 50 mM EDTA to the 384-well plate.
The inhibition rates of IRAK4 by the compounds were calculated by measuring the conversion rate of phosphorylation of the substrate using a Caliper EZ Reader (PerkinElmer) and the IC50 was calculated by XL-fit software.

Compound | IC50
COc1cc2nn([C@H]3C[C@H](C(C)(C)O)C3)cc2cc1NC(=O)c1cccc(C(F)(F)F)n1 [Compound 1, 6-trifluoromethyl-pyridine-2-carbomoylic acid {2-[3′-(1-hydroxy-1-methyl-ethyl)-cyclobutyl]-6-methoxy-2H-indazol-5-yl} -amide] | 1.1 nM
COc1cc2nn([C@H]3CC[C@H](O)CC3)cc2cc1NC(=O)c1cccc(C2CC2)[n+]1[O-] [Compound 2, 6-cyclopropyl-1-oxy-pyridine-2-carbomoylic acid [2-(4′-hydroxy-trans-cyclohexyl)-6-methoxy-2H-indazol-5-yl]-amide] | 2.5 nM
COc1cc2nn([C@H]3CC[C@](C)(O)CC3)cc2cc1NC(=O)c1cccc(C)[n+]1[O-] [Compound 4, 6-methyl-1oxo-pyridine-2-carbomoylic acid [2-(4′-hydroxy-4-methyl-cyclohexyl)-6-methoxy-2H-indazol-5-yl]-amide] | 4.6 nM
quinoline-8-carbomoylic acid [2-(4′-hydroxy-4-methyl-cyclohexyl)-6-methoxy-2H-indazol-5-yl]-amide [Compound 3] | 3.3 nM
